In assay [1] the test system is dendritic cells. In words: Expression of IL-23, IL-10 and TGF-β in dendritic cells by rtPCR. Type of assay: in vivo, human. The method, then: Nine subjects (3/group) were orally administered 0.2 mg, 1.0 mg or 5.0 mg of OKT3 daily for 5 days and immune parameters measured on days 5, 10 and 30 days (FIG. 12). Six subjects (3/group) received 7.5 mg of beta glucosylceramide in combination with 0.2 mg or 1.0 mg of OKT3 and 3 subjects received GC alone. All subjects were treated with 20 mg of Omeprazole (a proton pump inhibitor) during the 5 days of dosing. Dosing occurred in the morning before breakfast at the study site following a 8 hours fast.
Frozen PBMCs were used for sorting different cell populations, surface staining, and proliferation assays, and cytokine measurements. Cell sorting was performed by thawing […] PBMCs at room temperature (RT) and washing themed twice in medium at RT in 50-ml tubes in a 10-ml volume at 1,400 rpm. Cells were suspended to 20×10^6/ml and stained with seven colors staining of cells using Fc block, Lin-FITC, CD11c-APC, CD123-PE, CD3-Amcyan, CD4-Alexa700, CD25-PB, and 7-AAD was performed. Compensation controls, including an unstained control, were prepared. All samples were washed with medium and filtered into 15-ml tubes with 2 ml volume each to a total volume of 2 ml. CD4+ effector T cells, CD4+ regulatory T cells, myeloid DCs, and plasmacytoid DCs were sorted. Tubes were washed to get retrieve all sticky cells and spin them at 1,400 rpm. All cell populations were put in 350 μl of RLT 350 ul (lysis buffer), and transferred to eppendorff microtubes, and froze at −70° C. RNA was prepared using Qiagen micro kits (Valencia, Calif., USA) and cDNA was prepared using Applied Biosystems kits (Foster City, Calif., USA). We performed real-time PCR (RT-PCR) for different genes on in regulatory T cells, effector T cells, and DCs was performed.
RT RT-PCR was performed on DC from all patients in all groups. Sorting of DC was performed as described above. Total RNA was isolated from cell pellets using the RNA easy Mini Kit (QIAGENQiagen). RNA was stored at −80° C. First, strand cDNA synthesis was performed for each RNA sample from 0.5-1 μgm of total RNA using Taqman reverse transcription reagents (Applied Biosystems). cDNA was amplified using sequence-specific primers (for IL-23, IL-10, IL-1, IL-6, and TGF-β) and real-time PCR mix (Applied Biosystems) on an ABI7500 cycler. The GAPDH gene was used as an endogenous control to normalize for differences in the amount of total. RNA in each sample. All values were expressed as fold fold-increase or -decrease relative to the expression of GAPDH.
To further investigate the effect of oral OKT3 on the innate immune system, the expression of IL-23, IL-10 and TGF-β in dendritic cells was next measured by rtPCR.

Assay [2] concerns IgG and IgM repertoire. Description: Antigen microarrays of serum IgG and IgM reactivities. Type of assay: in vivo, human. An excerpt: A panel of self and non-self proteins, peptides and lipids were spotted onto Epoxi slides (TeleChem, CA, USA) as described [Quintana, F. J. et al. Proc. Natl. Acad. Sci. USA 101 Suppl 2:14615-14621 (2004)]. Since several of the self-antigens included in the antigen microarrays used by the invention, are targeted by natural antibodies [Coutinho, A. et al. Curr. Opin. Immunol. 7:812-818 (1995); Quintana, F. J. and Cohen, I. R. Biomed Pharmacother 58:276-281 (2004)], the inventors could detect both the up and the down-regulation of preexisting IgG and IgM reactivities. Sera from OKT3-treated subjects were assayed at a 1/10 dilution and the IgG or IgM reactivities displaying significant changes upon treatment were identified. Briefly, antigens were spotted in replicates of 6, the microarrays were blocked for 1 h at 37° C. with 1% bovine serum albumin, and incubated for 2 hr at 37° C. with a 1:200 dilution of the test serum in blocking buffer. The arrays were then washed and incubated for 45 minutes at 37° C. with a 1:500 dilution of detection antibodies: a goat […] Cy3-conjugated antibody or a goat anti-mouse IgM Cy5-conjugated antibody (Jackson ImmunoResearch, West Grove, Pa.). The arrays were scanned with a ScanArray 4000× scanner (GSI Luminomics, Billerica, Mass., USA) and the IgM and IgG results were recorded separately.
Raw data were normalized and analyzed using the GeneSpring software (Silicon Genetics, Redwood City, Calif.). Antigen reactivity was defined by the mean intensity of binding to the replicates of that antigen on the microarray. The data were analyzed with the Wilcoxon rank-sum test, a non-parametric test robust to outliers, using the Benjamini and Hochberg false discovery method with a p-value of 0.2 to determine significance [Stekel, D. Microarray Bioinformatics. Cambridge University Press, Cambridge (2003)]. To perform the hierarchical clustering of the antibody reactivities a pair wise average linkage algorithm based on Pearson's correlation was used as a distance measure [Stekel (2003) ibid.]
Antigen microarrays constitute a new tool for studying the immune system in health [Quintana, F. J. and Cohen, I. R. Biomed Pharmacother 58:276-281 (2004); Merbl, Y. et al. Clin. Invest. 117:712-718 (2007); Quintana, F. J. et al. J. Autoimmun. 21:65-75 (2003)] and disease [Goldschmidt, Y. et al. Technical Report MCS03-071-018 (2003); Hueber, W. et al. Arthritis Rheum. 52:2645-2655 (2005)]. The inventors therefore used an antigen microarray containing a broad panel of antigens that included self and non self proteins, heat shock proteins, and infectious agents to investigate the effects of oral OKT3 on the immune repertoire. Both increases and decreases of immunoglobulin reactivities were measured.
No changes occurred in the IgM repertoire.

For “OKT3: murine monoclonal anti-CD3 antibody (Orthoclone OKT-3, Ortho Biotech)”, the “subjects with similar findings (IL-10, TGF-β) in dendritic cells” value in assay [1] (0.2 mg oral, not shown) is listed as “two out of three subjects”. Moreover, in assay [1] (1.0 mg oral), the “subjects with decrease in IL-23 in dendritic cells” value is listed as “all three subjects”, the “subjects with increase in IL-10 in dendritic cells” value is listed as “two out of three subjects” and the “subjects with increase in TGF-β in dendritic cells” value was “one out of three subjects”. For the same substance, the “effect on dendritic cells” value in assay [1] (5.0 mg oral, not shown) is given as “no effect”. Moreover, the IgG reactivities affected in assay [2] (0.2 mg dose) was determined as 4. For the same substance, in assay [2] (1.0 mg dose), the IgG reactivities affected turned out to be 37, the “downregulated IgG reactivities” value came to 19 and the “up regulated IgG reactivities” value worked out at 18. In assay [2] (5 mg dose), the “downregulated IgG reactivities” value was determined as 18 and the “up-regulated IgG reactivities” value stood at 47. The substance further gave an IgG reactivities affected in assay [2] (5.0 mg dose) of 65. The “changes in the IgM repertoire” value in assay [2] (oral OKT3) is listed as “No changes”.

These data come from patent US9981037B2, “Combination therapy of beta-glycolipids and antibodies for the treatment of immune-related disorders” (HADASIT MEDICAL RESEARCH SERVICES AND DEVELOPMENT LTD., priority 2008, dated 2018).
